Measured values: patent US20200255478A1, “NOVEL COMPOUNDS ACTIVATING THE NRF2 PATHWAY” (Almirall, S.A., priority 2017, published 2020)
Starred links: 1 amine or outer side, 2 acyl side, 3 side chain; linkers in the order of their positions; H or OH if unused. Positions of bridges follow the written chain, without caps; N, C: chain ends. Non-standard residues stand in square brackets, D forms with d. Residues, ends and D or L forms follow the SMILES beside them. *: point of attachment. Pyridine(2,6-diCH2) = c1cc(C[*:1])nc(C[*:2])c1; Pyridine(3,5-bisCH2) = c1ncc(C[*:2])cc1C[*:1]; X1 = O=C([C@@H]1C[C@H](N[*:3])CN1[*:1])[*:2]; X7 = c1ccc(-c2ccccc2C[*:2])c(C[*:1])c1; mXylylene = c1cc(C[*:1])cc(C[*:2])c1; oXylylene = c1ccc(C[*:2])c(C[*:1])c1; Stearoyl = CCCCCCCCCCCCCCCCCC(=O)*; pXylylene = c1cc(C[*:2])ccc1C[*:1]; βAla = NCCC(=O)O

target: Keap1-Maltose Binding Protein (MBP tag) (Homo sapiens, UniProt Q14145); test: Nrf2-Keap1 HTRF (TR-FRET) binding assay: displacement of biotinylated ETGE peptide from Keap1-MBP; conditions: not given
Sequence (Q14145 whole entry): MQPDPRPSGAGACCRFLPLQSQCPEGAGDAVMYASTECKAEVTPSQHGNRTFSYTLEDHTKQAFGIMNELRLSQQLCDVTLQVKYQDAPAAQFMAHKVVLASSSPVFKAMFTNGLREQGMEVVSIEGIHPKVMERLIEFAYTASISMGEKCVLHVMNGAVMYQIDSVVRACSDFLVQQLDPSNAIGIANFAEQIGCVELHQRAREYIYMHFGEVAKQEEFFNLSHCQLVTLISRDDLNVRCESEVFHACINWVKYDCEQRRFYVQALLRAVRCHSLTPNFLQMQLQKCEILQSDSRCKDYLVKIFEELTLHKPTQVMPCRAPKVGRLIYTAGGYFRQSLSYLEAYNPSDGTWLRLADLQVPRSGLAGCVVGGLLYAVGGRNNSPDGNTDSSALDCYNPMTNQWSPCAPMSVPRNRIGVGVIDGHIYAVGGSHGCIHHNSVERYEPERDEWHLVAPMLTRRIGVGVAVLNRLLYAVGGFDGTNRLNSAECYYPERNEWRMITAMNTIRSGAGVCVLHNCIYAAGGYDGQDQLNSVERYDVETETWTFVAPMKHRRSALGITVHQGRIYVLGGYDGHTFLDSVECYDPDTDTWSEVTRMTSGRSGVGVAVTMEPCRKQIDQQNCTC

Compound | IC50
CC(C)C[C@H](NC(=O)[C@@H]1CSCc2c(F)c(F)c(F)c(F)c2CSC[C@H](NC(=O)[C@H](CCC(N)=O)NC(=O)[C@@H](N)CC(C)C)C(=O)N[C@@H](CC(=O)O)C(=O)N2CCC[C@H]2C(=O)N[C@@H](CCC(=O)O)C(=O)N[C@@H]([C@@H](C)O)C(=O)NCC(=O)N[C@@H](CCC(=O)O)C(=O)N1)C(=O)N1CCC[C@H]1C(=O)NCCC(=O)N[C@@H](CCCNC(=N)N)C(=O)N[C@@H](CCCCN)C(=O)N[C@@H](CCCCN)C(=O)N[C@@H](CCCNC(=N)N)C(=O)N[C@@H](CCCNC(=N)N)C(=O)N[C@@H](CCC(N)=O)C(=O)N[C@@H](CCCNC(=N)N)C(=O)N[C@@H](CCCNC(=N)N)C(=O)N[C@@H](CCCNC(=N)N)C(N)=O [Example 56] | < 1 nM
CCCCCCCCCCCCCCCCCC(=O)N[C@H]1C[C@H]2C(=O)N[C@@H](CCC(N)=O)C(=O)N[C@H]3CSCc4ccccc4CSC[C@H](NC(=O)[C@H](CCC(=O)O)NC(=O)CNC(=O)[C@H]([C@@H](C)O)NC(=O)[C@H](CCC(=O)O)NC(=O)[C@@H]4C[C@H](N)CN4C(=O)[C@H](CC(=O)O)NC3=O)C(=O)N[C@@H](CC(C)C)C(=O)N3CCC[C@@H]3C(=O)N2C1 [Example 73, {[&^1Pro((4S)-NH-Stearyl)-Gln-Cys(&^2)-Asp-Pro((4S)-NH2)-Glu-Thr-Gly-Glu-Cys(&^3)-Leu-D-Pro&^1][&^2(1,2-phenylenediyl)dimethylene&^3]}] | 1 to 100 nM
CC(C)C[C@@H]1NC(=O)[C@@H]2CCCN2C(=O)[C@H](CC(C)C)NC(=O)[C@@H]2CSCc3cccc(c3)CSC[C@H](NC(=O)[C@H](CCC(N)=O)NC1=O)C(=O)N[C@@H](CC(=O)O)C(=O)N[C@@H](C)C(=O)N[C@@H](CCC(=O)O)C(=O)N[C@@H]([C@@H](C)O)C(=O)NCC(=O)N[C@@H](CCC(=O)O)C(=O)N2 [Example 17] (cyclo(AETGECLPLQCD); linker 6-11 via mXylylene) | 1 to 100 nM
CCCCCCCCCCCCCCCCCCCC(=O)N[C@H]1C[C@H]2C(=O)N[C@@H](CCC(N)=O)C(=O)N[C@H]3CSCC4(COC4)CSC[C@H](NC(=O)[C@H](CCC(=O)O)NC(=O)CNC(=O)[C@H]([C@@H](C)O)NC(=O)[C@H](CCC(=O)O)NC(=O)[C@@H]4CCCN4C(=O)[C@H](CC(=O)O)NC3=O)C(=O)N[C@@H](CC(C)C)C(=O)N3CCC[C@@H]3C(=O)N2C1 [Example 95, {[&^1Pro((4S)-NH-Arachidyl)-Gln-Cys(&^2)-Asp-Pro-Glu-Thr-Gly-Glu-Cys(&^3)-Leu-D-Pro&^1][&^2(3,3-oxetanediyl)dimethylene&^3]}] | < 1 nM

same assay, conditions: HTRF (TR-FRET); displacement of ETGE-biotin from Keap1-MBP; values banded into grades; read-out: Binding (IC50) ETGE-Keap1

Compound | IC50
CC(C)C[C@H](NC(=O)[C@@H]1CSCc2cc3ccccc3cc2CSC[C@H](NC(=O)[C@H](CCC(N)=O)NC(=O)[C@@H](N)CC(C)C)C(=O)N[C@@H](CC(=O)O)C(=O)N2CCC[C@H]2C(=O)N[C@@H](CCC(=O)O)C(=O)N[C@@H]([C@@H](C)O)C(=O)NCC(=O)N[C@@H](CCC(=O)O)C(=O)N1)C(=O)N1CCC[C@H]1C(=O)NCCC(=O)N[C@@H](CCCNC(=N)N)C(=O)N[C@@H](CCCNC(=N)N)C(=O)N[C@@H](CCCNC(=N)N)C(=O)N[C@@H](CCCNC(=N)N)C(=O)N[C@@H](CCCNC(=N)N)C(=O)N[C@@H](CCCNC(=N)N)C(=O)N[C@@H](CCCNC(=N)N)C(=O)N[C@@H](CCCNC(=N)N)C(N)=O [Example 68, {[H-Leu-G1n-Cys(&^1)-Asp-Pro-Glu-Thr-G1y-Glu-Cys(&^2)-Leu-Pro-βAla-Arg8-NH2][&^1(naphthalene)2,3-diyldimethylene&^2]}] | 1 to 100 nM
CC(C)C[C@H](NC(=O)[C@H](CC(C)C)NC(=O)[C@@H]1CSCc2ccccc2CSC[C@H](NC(=O)[C@H](CC(C)C)NC(=O)[C@@H](N)CC(C)C)C(=O)N[C@@H](CC(=O)O)C(=O)N2CCC[C@H]2C(=O)N[C@@H](CCC(=O)O)C(=O)N[C@@H]([C@@H](C)O)C(=O)NCC(=O)N[C@@H](CCC(=O)O)C(=O)N1)C(=O)NCCC(=O)N[C@@H](CCCNC(=N)N)C(=O)N[C@@H](CCCCN)C(=O)N[C@@H](CCCCN)C(=O)N[C@@H](CCCNC(=N)N)C(=O)N[C@@H](CCCNC(=N)N)C(=O)N[C@@H](CCC(N)=O)C(=O)N[C@@H](CCCNC(=N)N)C(=O)N[C@@H](CCCNC(=N)N)C(=O)N[C@@H](CCCNC(=N)N)C(N)=O [Example 60] | < 1 nM
CCCCCCCCCCCCCCCCCC(=O)NCCC(=O)N[C@@H](CC(C)C)C(=O)N[C@@H](CCC(N)=O)C(=O)N[C@H]1CSCc2cccc(n2)CSC[C@@H](C(=O)N[C@@H](CC(C)C)C(=O)N2CCC[C@H]2C(N)=O)NC(=O)[C@H](CCC(=O)O)NC(=O)CNC(=O)[C@H]([C@@H](C)O)NC(=O)[C@H](CCC(=O)O)NC(=O)[C@@H]2CCCN2C(=O)[C@H](CC(=O)O)NC1=O [Example 62, {[Stearyl-βAla-Leu-Gln-Cys(&^1)-Asp-Pro-Glu-Thr-Gly-Glu-Cys(&^2)-Leu-Pro-NH2][&^1(pyridine)2,6-diyldimethylene&^2]}] ({Stearoyl-βAla}-LQCDPETGECLP-NH2; linker 3-10 via Pyridine(2,6-diCH2)) | 1 to 100 nM
CCCCCCCCCCCCCCCCCC(=O)N[C@H]1CCCCNC(=O)[C@H]2CCCN2C(=O)[C@H](CC(C)C)NC(=O)[C@@H]2CSCc3ccccc3CSC[C@H](NC(=O)[C@H](CCC(N)=O)NC1=O)C(=O)N[C@@H](CC(=O)O)C(=O)N1CCC[C@H]1C(=O)N[C@@H](CCC(=O)O)C(=O)N[C@@H]([C@@H](C)O)C(=O)NCC(=O)N[C@@H](CCC(=O)O)C(=O)N2 [Example 92, {[Stearyl-Lys(&^1)-Gln-Cys(&^2)-Asp-Pro-Glu-Thr-Gly-Glu-Cys(&^3)-Leu-D-Pro&^1][&^2(1,2-phenylenediyl)dimethylene&^3]}] | < 1 nM
CCCCCCCCCCCCCCCCCC(=O)NCCC(=O)N[C@H](C(=O)N[C@H](C(=O)N[C@H]1CSCc2ccccc2CSC[C@@H](C(=O)N[C@H](C(=O)N[C@H](C(N)=O)C(C)C)C(C)C)NC(=O)[C@H](CCC(=O)O)NC(=O)CNC(=O)[C@H]([C@@H](C)O)NC(=O)[C@H](CCC(=O)O)NC(=O)[C@@H]2CCCN2C(=O)[C@H](CC(=O)O)NC1=O)C(C)C)C(C)C [Example 52, {[Stearyl-βAla-Val-Val-Cys(&^1)-Asp-Pro-Glu-Thr-Gly-Glu-Cys(&^2)-Val-Val-NH2][&^1(1,2-phenylenediyl)dimethylene&^2]}] ({Stearoyl-βAla}-VVCDPETGECVV-NH2; linker 3-10 via oXylylene) | 1 to 100 nM
CC(C)C[C@H](NC(=O)[C@@H]1CSCc2ccc(cc2)CSC[C@H](NC(=O)[C@H](CCC(N)=O)NC(=O)[C@@H](N)CC(C)C)C(=O)N[C@@H](CC(=O)O)C(=O)N[C@@H](CCC(=O)O)C(=O)N[C@@H](CCC(=O)O)C(=O)N[C@@H]([C@@H](C)O)C(=O)NCC(=O)N[C@@H](CCC(=O)O)C(=O)N1)C(=O)N1CCC[C@H]1C(=O)O [Example 2, {[H-Leu-Gln-Cys(&^1)-Asp-Glu-Glu-Thr-Gly-Glu-Cys(&^2)-Leu-Pro-OH][&^1(1,4-phenylenediyl)dimethylene&^2]}] (H-LQCDEETGECLP-OH; linker 3-10 via pXylylene) | 100 to 5000 nM
CC(=O)N[C@H]1CSCc2ccccc2-c2ccccc2CSC[C@@H](C(N)=O)NC(=O)[C@H](CCC(=O)O)NC(=O)CNC(=O)[C@H]([C@@H](C)O)NC(=O)[C@H](CCC(=O)O)NC(=O)[C@H](CCC(=O)O)NC(=O)[C@H](CC(=O)O)NC1=O [Example 24, {[Acetyl-Cys(&^1)-Asp-Glu-Glu-Thr-Gly-Glu-Cys(&^2)-NH2][&^1(1,1′-biphenyl)2,2′-diyldimethylene&^2]}] (Ac-CDEETGEC-NH2; linker 1-8 via X7) | 1 to 100 nM
CCCCCCCCCCCCCCCCCC(=O)N[C@H]1C[C@H]2C(=O)N[C@@H](CCC(N)=O)C(=O)N[C@H]3CSCc4ccccc4CSC[C@H](NC(=O)[C@H](CCC(=O)O)NC(=O)CNC(=O)[C@H]([C@@H](C)O)NC(=O)[C@H](CCC(=O)O)NC(=O)[C@H](CCCNC(=N)N)NC(=O)[C@H](CC(=O)O)NC3=O)C(=O)N[C@@H](CC(C)C)C(=O)N3CCC[C@@H]3C(=O)N2C1 [Example 70, {[&^1Pro((4S)-NH-Stearyl)-Gln-Cys(&^2)-Asp-Arg-Glu-Thr-Gly-Glu-Cys(&^3)-Leu-D-Pro&^1][&^2(1,2-phenylenediyl)dimethylene&^2]}] (cyclo(CDRETGECL[dP][X1](Stearoyl)Q); linker 1-8 via oXylylene) | < 1 nM
CCCCCCCCCCCCCCCCCC(=O)NCCC(=O)N[C@@H](CC(C)C)C(=O)N[C@@H](CCC(N)=O)C(=O)N[C@H]1CSCc2cncc(c2)CSC[C@@H](C(=O)N[C@@H](CC(C)C)C(=O)N2CCC[C@H]2C(N)=O)NC(=O)[C@H](CCC(=O)O)NC(=O)CNC(=O)[C@H]([C@@H](C)O)NC(=O)[C@H](CCC(=O)O)NC(=O)[C@@H]2CCCN2C(=O)[C@H](CC(=O)O)NC1=O [Example 65, {[Stearyl-βAla-Leu-Gln-Cys(&^1)-Asp-Pro-Glu-Thr-Gly-Glu-Cys(&^2)-Leu-Pro-NH2][&^1(pyridine)3,5-diyldimethylene&^2]}] ({Stearoyl-βAla}-LQCDPETGECLP-NH2; linker 3-10 via Pyridine(3,5-bisCH2)) | < 1 nM
CC(C)C[C@H](NC(=O)[C@@H]1CSCc2cccc(c2)CSC[C@H](NC(=O)[C@H](CCC(N)=O)NC(=O)[C@@H](N)CC(C)C)C(=O)N[C@@H](CC(=O)O)C(=O)N[C@@H](C)C(=O)N[C@@H](CCC(=O)O)C(=O)N[C@@H]([C@@H](C)O)C(=O)NCC(=O)N[C@@H](CCC(=O)O)C(=O)N1)C(=O)N1CCC[C@H]1C(=O)NCCC(=O)N[C@@H](CCCNC(=N)N)C(=O)N[C@@H](CCCCN)C(=O)N[C@@H](CCCCN)C(=O)N[C@@H](CCCNC(=N)N)C(=O)N[C@@H](CCCNC(=N)N)C(=O)N[C@@H](CCC(N)=O)C(=O)N[C@@H](CCCNC(=N)N)C(=O)N[C@@H](CCCNC(=N)N)C(=O)N[C@@H](CCCNC(=N)N)C(N)=O [Example 16] | < 1 nM
CCCCCCCCCCCCCCCCCC(=O)NCCC(=O)N[C@@H](CCCCN)C(=O)N[C@@H](CCCCN)C(=O)N[C@H]1CSCc2ccccc2CSC[C@@H](C(=O)N[C@@H](CC(C)C)C(=O)N2CCC[C@H]2C(N)=O)NC(=O)[C@H](CCC(=O)O)NC(=O)CNC(=O)[C@H]([C@@H](C)O)NC(=O)[C@H](CCC(=O)O)NC(=O)[C@@H]2CCCN2C(=O)[C@H](CC(=O)O)NC1=O [Example 57, {[Stearyl-βAla-Lys-Lys-Cys(&^1)-Asp-Pro-Glu-Thr-Gly-Glu-Cys(&^2)-Leu-Pro-NH2][&^1(1,2-phenylenediyl)dimethylene&^2]}] ({Stearoyl-βAla}-KKCDPETGECLP-NH2; linker 3-10 via oXylylene) | < 1 nM
